What follows are compounds tested against T1, Human Recombinant Matriptase 2 (Homo sapiens, UniProt Q8IU80) (assay: Matriptase 2 fluorescence based inhibition assay, Method A (100 mM TRIS pH 9, 1 mg/mL BSA)). Details: 1 uM compound; Assay Used = A; read-out: Mar-2 % inhibition at 1 uM.
T1 construct: purchased Enzo Life Sciences (an in-house preparation was also used) ALX-201-752-1
T1 sequence (Q8IU80 1-811): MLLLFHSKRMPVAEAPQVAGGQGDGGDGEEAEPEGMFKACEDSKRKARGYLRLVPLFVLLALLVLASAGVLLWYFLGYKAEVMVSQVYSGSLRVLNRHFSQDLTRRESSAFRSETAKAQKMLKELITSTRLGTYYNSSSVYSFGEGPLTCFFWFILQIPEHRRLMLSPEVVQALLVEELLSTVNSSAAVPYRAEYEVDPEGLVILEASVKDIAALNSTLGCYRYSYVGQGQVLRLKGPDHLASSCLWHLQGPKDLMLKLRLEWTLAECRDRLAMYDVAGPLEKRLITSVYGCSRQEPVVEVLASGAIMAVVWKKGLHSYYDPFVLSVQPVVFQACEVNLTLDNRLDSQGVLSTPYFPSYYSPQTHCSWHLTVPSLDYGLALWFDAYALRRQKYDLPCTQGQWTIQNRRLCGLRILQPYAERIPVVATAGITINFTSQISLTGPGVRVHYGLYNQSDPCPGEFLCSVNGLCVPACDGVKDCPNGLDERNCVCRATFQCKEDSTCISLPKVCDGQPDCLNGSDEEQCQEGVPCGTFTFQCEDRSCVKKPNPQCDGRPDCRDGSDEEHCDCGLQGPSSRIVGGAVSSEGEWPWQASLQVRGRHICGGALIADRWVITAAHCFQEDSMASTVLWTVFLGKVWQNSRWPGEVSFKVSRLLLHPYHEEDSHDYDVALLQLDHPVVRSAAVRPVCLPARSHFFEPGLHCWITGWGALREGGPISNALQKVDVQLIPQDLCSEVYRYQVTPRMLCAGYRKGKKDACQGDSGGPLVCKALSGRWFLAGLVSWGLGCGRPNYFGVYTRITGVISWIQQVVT
Type: biochemical
In short: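 At 25° C in 100 mM TRIS pH 9 with 1 mg/mL BSA and 1% DMSO, compounds were preincubated 30 min with 7 nM commercial or 15 nM in-house protein before adding 100 μM Boc-Gln-Ala-Arg-7-amido-4-methyl coumarin. Fluorescence at 360/480 nm after 60 min; single points at 1 and 10 μM, IC50 by variable-slope nonlinear regression.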
In the case of `N=C(N)c1ccc2cc(C(=O)NCC3CCNCC3)n(Cc3ccc4ccccc4c3)c2c1` [Compound I-406, 6-carbamimidoyl-1-(naphthalen-2-ylmethyl)-N-(piperidin-4-ylmethyl)-1H-indole-2-carboxamide], the inhibition at 1 µM is reported as 25 to 50%.

Same assay, conditions: 1 uM; Assay Used A; read-out: Mar-2 % inhibition at 1 uM
`N=C(N)c1ccc2cc(C(=O)Nc3cccc(-c4ccccc4)c3)n(Cc3ccc(C(N)=O)cc3)c2c1` [Compound I-151] was tested, and the inhibition at 1 µM was 0 to 25%. `CC(C)[C@@H](NC(=O)OC(C)(C)C)C(=O)O/N=C(\N)c1ccc2cc(C(=O)Nc3cccc(N4CCCC4)c3)n(Cc3ccc(C(N)=O)cc3)c2c1` [Compound I-157, (R)-tert-butyl (1-(((amino(1-(4-carbamoylbenzyl)-2-((3-(pyrrolidin-1-yl)phenyl)-carbamoyl)-1H-indol-6-yl)methylene)amino)oxy)-3-methyl-1-oxobutan-2-yl)carbamate] was tested, and the inhibition at 1 µM was 0 to 25%. Compound `N=C(N)c1ccc2cc(C(=O)Nc3cccc(N4CCCC4)n3)n(Cc3ccc(C(N)=O)cc3)c2c1` [Compound I-180] has an inhibition at 1 µM of 25 to 50%. `N=C(N)c1ccc2c(N)c(C(=O)NCC3CCCCC3)n(CCS(=O)(=O)c3ccccc3)c2c1` [Compound I-58, 3-Amino-6-carbamimidoyl-N-(cyclohexylmethyl)-1-(2-(phenylsulfonyl)ethyl)-1H-indole-2-carboxamide] showed an inhibition at 1 µM of 0 to 25%. In the case of `CC(C)c1cccc(NC(=O)c2cc3ccc(C(=N)N)cc3n2Cc2ccc(C(N)=O)cc2)c1` [Compound I-79], the inhibition at 1 µM is reported as 0 to 25%. Compound `CN1CCC(N(C)C(=O)c2cc3ccc(C(=N)N)cc3n2Cc2ccc(C(N)=O)cc2)C1` (centres unmarked) [Compound I-103, 6-Carbamimidoyl-1-(4-carbamoylbenzyl)-N-methyl-N-(1-methylpyrrolidin-3-yl)-1H-indole-2-carboxamide] has an inhibition at 1 µM of 0 to 25%. `N=C(N)c1ccc2cc(C(=O)Nc3cccc(N4CC[C@H](F)C4)c3)n(Cc3ccc(C(N)=O)cc3)c2c1` [Compound I-122] was tested, and the inhibition at 1 µM was 0 to 25%. Work on `N=C(N)c1ccc2cc(C(=O)Nc3cc(F)ccc3F)n(Cc3ccc(C(N)=O)cc3)c2c1` [Compound I-115] yielded an inhibition at 1 µM of 0 to 25%. `N=C(N)c1ccc2cc(C(=O)Nc3ccc(F)c(N4CCCC4)c3)n(Cc3ccc(C(N)=O)cc3)c2c1` [Compound I-155] showed an inhibition at 1 µM of 0 to 25%. For `N=C(N)c1ccc2cc(C(=O)N[C@H]3CC[C@H](N)CC3)n(Cc3ccncc3)c2c1` [Compound I-19], the inhibition at 1 µM was 25 to 50%. Work on `N=C(N)c1ccc2cc(C(=O)Nc3cc(F)c(F)c(Br)c3)n(Cc3ccc(C(N)=O)cc3)c2c1` [Compound I-130] yielded an inhibition at 1 µM of 0 to 25%. With `N=C(N)c1ccc2cc(C(=O)Nc3cccc4c3CCC4)n(Cc3ccc(C(N)=O)cc3)c2c1` [Compound I-91] the inhibition at 1 µM was 0 to 25%. `CSc1ccc(Cn2c(C(=O)NC3CCC(N)CC3)cc3ccc(C(=N)N)cc32)cc1` (centres unmarked) [Compound I-13] showed an inhibition at 1 µM of 50 to 75%. `N=C(NC(=O)OCc1ccccc1)c1ccc2cc(C(=O)Nc3cccc(N4CCCC4)c3)n(Cc3ccc(C(N)=O)cc3)c2c1` [Compound I-143] showed an inhibition at 1 µM of 0 to 25%. `CC(C)c1ccc(Cn2c(C(=O)NC3CCC(F)(F)CC3)cc3ccc(C(=N)N)cc32)cc1` [Compound I-15] was tested, and the inhibition at 1 µM was 0 to 25%. Compound `N=C(N)c1ccc2cc(C(=O)Nc3cc(F)cc(N4CCCC4)c3)n(Cc3ccc(C(N)=O)cc3)c2c1` [Compound I-108] has an inhibition at 1 µM of 0 to 25%. For `C[C@H](NC(=O)c1cc2ccc(C(=N)N)cc2n1Cc1ccc(C(N)=O)cc1)c1ccc(F)c(F)c1` [Compound I-94], the inhibition at 1 µM was 0 to 25%. Work on `N=C(N)c1ccc2cc(C(=O)Nc3ccc(N4CC[C@@H](F)C4)cc3)n(Cc3ccc(C(N)=O)cc3)c2c1` [Compound I-127] yielded an inhibition at 1 µM of 25 to 50%. Work on `N=C(N)c1ccc2cc(C(=O)Nc3ccc(C(=O)N4CCCC4)cc3)n(Cc3ccc(C(N)=O)cc3)c2c1` [Compound I-78] yielded an inhibition at 1 µM of 0 to 25%. Work on `N=C(N)c1ccc2cc(C(=O)Nc3ccc(C(=O)N4CCC4)cc3)n(Cc3ccc(C(N)=O)cc3)c2c1` [Compound I-92] yielded an inhibition at 1 µM of 0 to 25%. `N=C(N)c1ccc2cc(C(=O)Nc3ccc(N4CCCC4)nc3)n(Cc3ccc(C(N)=O)cc3)c2c1` [Compound I-177] showed an inhibition at 1 µM of 0 to 25%. Work on `N=C(N)c1ccc2cc(C(=O)N[C@@H](CO)c3ccccc3)n(Cc3ccc(C(N)=O)cc3)c2c1` [Compound I-85] yielded an inhibition at 1 µM of 0 to 25%. For `C[C@H]1CC[C@H](NC(=O)c2cc3ccc(C(=N)N)cc3n2Cc2ccc(C(N)=O)cc2)CC1` [Compound I-186], the inhibition at 1 µM was 0 to 25%. Compound `CCOC(=O)Nc1c(C(=O)NC2CCC(N)CC2)n(CCS(=O)(=O)c2ccccc2)c2cc(/C(N)=N/O)ccc12` (centres unmarked) [Compound I-57, Ethyl (2-(((1r,4r)-4-aminocyclohexyl)carbamoyl)-6-((Z)—N′-hydroxycarbamimidoyl)-1-(2-(phenylsulfonyl)ethyl)-1H-indol-3-yl)carbamate] has an inhibition at 1 µM of 0 to 25%. Compound `COC(=O)c1ccc(Cn2c(C(=O)N[C@H]3CC[C@H](N)CC3)cc3ccc(C(=N)N)cc32)cc1` [Compound I-21, Methyl 4-((2-(((1r,4r)-4-aminocyclohexyl)carbamoyl)-6-carbamimidoyl-1H-indol-1-yl)methyl)-benzoate] has an inhibition at 1 µM of 50 to 75%.

Same assay, conditions: at 1 uM; Assay Used = A; read-out: Mar-2 % inhibition at 1 uM
With `N=C(N)c1ccc2cc(C(=O)N3CCC(F)(F)CC3)n(Cc3ccc(C(F)(F)F)cc3)c2c1` [Compound I-283] the inhibition at 1 µM was 0 to 25%. For `CN(C)C(=O)c1ccc(Cn2c(C(=O)NCC3CCCCC3)cc3ccc(C(=N)N)cc32)cc1` [Compound I-216, 6-Carbamimidoyl-N-(cyclohexylmethyl)-1-(4-(dimethylcarbamoyl)benzyl)-1H-indole-2-carboxamide], the inhibition at 1 µM was 0 to 25%. `N=C(N)c1ccc2cc(C(=O)NCC3CCCCC3)n(Cc3ccc(C(=O)NC4CC4)cc3)c2c1` [Compound I-217, 6-Carbamimidoyl-N-(cyclohexylmethyl)-1-(4-(cyclopropylcarbamoyl)benzyl)-1H-indole-2-carboxamide] showed an inhibition at 1 µM of 0 to 25%. With `N=C(N)c1ccc2cc(C(=O)N[C@H]3CC[C@H](N)CC3)n(Cc3ccc(-c4ccccc4)cc3)c2c1` [Compound I-234] the inhibition at 1 µM was 25 to 50%. `CC(C)CCn1c(C(=O)N2CCC(F)(F)CC2)cc2ccc(C(=N)N)cc21` [Compound I-271] gave an inhibition at 1 µM of 0 to 25%. `N=C(N)c1ccc2cc(C(=O)N3CCCC(F)(F)C3)n(Cc3ccc(-c4ccccc4)cc3)c2c1` [Compound I-307] was tested, and the inhibition at 1 µM was 0 to 25%. With `CC1CCC(NC(=O)c2cc3ccc(C(=N)N)cc3n2Cc2ccc(C(=O)NCCO)cc2)CC1` (centres unmarked) [Compound I-223, 6-Carbamimidoyl-1-(4-((2-hydroxyethyl)carbamoyl)benzyl)-N-(4-methylcyclohexyl)-1H-indole-2-carboxamide] the inhibition at 1 µM was 0 to 25%. In the case of `N=C(N)c1ccc2cc(C(=O)N3CCC(F)(F)C3)n(Cc3ccc(-c4ccccc4)cc3)c2c1` [Compound I-310], the inhibition at 1 µM is reported as 0 to 25%. `N=C(N)c1ccc2cc(C(=O)N3CCC(CCN)CC3)n(Cc3ccc(Oc4ccc(F)cc4)cc3)c2c1` [Compound I-316] gave an inhibition at 1 µM of 0 to 25%. `N=C(N)c1ccc2cc(C(=O)N3CCC(CF)CC3)n(Cc3ccc(NC(=O)CCN)cc3)c2c1` [Compound I-377] was tested, and the inhibition at 1 µM was 0 to 25%. Work on `N=C(N)c1ccc2cc(C(=O)NCC3CCCCC3)n(Cc3ccc(C(=O)NCCN)cc3)c2c1` [Compound I-225, 1-(4-((2-Aminoethyl)carbamoyl)benzyl)-6-carbamimidoyl-N-(cyclohexylmethyl)-1H-indole-2-carboxamide] yielded an inhibition at 1 µM of 0 to 25%. `N=C(N)c1ccc2c(Cl)c(C(=O)NCC3CCCCC3)n(Cc3ccc(C(N)=O)cc3)c2c1` [Compound I-213, 6-Carbamimidoyl-1-(4-carbamoylbenzyl)-3-chloro-N-(cyclohexylmethyl)-1H-indole-2-carboxamide] gave an inhibition at 1 µM of 0 to 25%. With `N=C(N)c1ccc2cc(C(=O)N3CCC(F)(F)C3)n(Cc3ccc(Oc4ccccc4)cc3)c2c1` [Compound I-314] the inhibition at 1 µM was 0 to 25%. For `N=C(N)c1ccc2cc(C(=O)N3CCC(CCN)CC3)n(S(=O)(=O)c3ccc4ccccc4c3)c2c1` [Compound I-335], the inhibition at 1 µM was 0 to 25%. `N=C(N)c1ccc2cc(C(=O)N3CCC(CCNC(=O)c4ccccn4)CC3)n(Cc3ccc(C(F)(F)F)cc3)c2c1` [Compound I-286] showed an inhibition at 1 µM of 0 to 25%. Compound `CC(C)c1ccc(Cn2c(C(=O)N3CCC(F)(F)C3)cc3ccc(C(=N)N)cc32)cc1` [Compound I-294] has an inhibition at 1 µM of 0 to 25%. `N=C(N)c1ccc2cc(C(=O)NCC3CCCCC3)n(Cc3ccc(C(N)=O)cc3Cl)c2c1` [Compound I-228, 6-Carbamimidoyl-1-(2-Chloro-4-carbamoyl-benzyl)-N-(cyclohexylmethyl)-1H-indole-2-carboxamide] gave an inhibition at 1 µM of 0 to 25%. With `N=C(N)c1ccc2cc(C(=O)N3CCC(CCN)CC3)n(CCc3ccccc3)c2c1` [Compound I-299] the inhibition at 1 µM was 25 to 50%.

Source: patent US12428415B2, “Matriptase 2 inhibitors and uses thereof” (Disc Medicine, Inc., priority 2018, dated 2025)
